In patent US20100144700A1, “HETEROCYCLIC-CARBONYL-DIAZABICYCLOALKANES AS MODULATORS OF THE NEURONAL NICOTINIC ACETYLCHOLINE ALPHA 4 BETA 2, SUBTYPE RECEPTOR FOR THE TREATMENT OF CNS RELATED DISORDERS” (TARGACEPT, INC., priority 2007, published 2010):

Test: NOR (novel object recognition) task in rats
Type: in vivo, rat
Conditions: treated orally, 0.03 mg/kg
Experimental: FIG. 1 is a chart showing the results of a study on object recognition in rats treated orally with (1S,5S)-3-(5-bromofuran-2-ylcarbonyl)-3,6-diazabicyclo[3.2.1]octane. The results are shown as a function of recognition index (%) versus dose (mg/kg).
Certain exemplified compounds were assessed in the NOR (novel object recognition) task. Thus, (1S,5S)-3-(5-bromofuran-2-ylcarbonyl)-3,6-diazabicyclo[3.2.1]octane (FIG. 1) was active in NOR in rats, at 0.03 mg/kg. This provides evidence of the efficacy (and potency) of the compounds of the present invention in treating cognitive deficits, attentional disorders and dementias, and the potential of these compounds for human therapy.

O=C(c1ccc(Br)o1)N1C[C@@H]2CN[C@@H](C2)C1 [(1S,5S)-3-(5-bromofuran-2-ylcarbonyl)-3,6-diazabicyclo[3.2.1]octane]
activity in NOR (recognition index): active
